Assay results: US8637535B2, “Polymorphic and other crystalline forms of cis-FTC” (Gilead Sciences, Inc., priority 2001, dated 2014)

Assays:
[1] = tested on: HIV; details: cited from earlier work
[2] = tested on: HIV; details: racemic mixture; cited from earlier work
[3] = solubility values greater than 100 mg/mL are considered highly soluble
Protocol: Equilibrium Solubility: Equilibrium solubility values were obtained using an excess of solid in a stoppered flask shaken in a temperature-controlled water bath at 25 C for 52 hours. Residual solid material was identified postequilibrium by hot-stage microscopy and PXRD. The supernatant was filtered across 0.45-μm membrane filters prior to dilution for HPLC analysis.

[4] = heated to 160° C., cooled to 25° C., reheated at 10° C./min
Protocol: Thermal events for Form I (−)-cis-FTC upon melting and subsequent cooling to room temperature were observed by DSC. A 5.5500 mg sample of Form I (−)-cis-FTC was heated to 160° C., that is just above the melting temperature for Form I, and then cooled back to 25° C.

[5] = hand trituration 5 minutes or Fitzpatrick mill; DSC and PXRD
Protocol: Milling: (−)-cis-FTC was milled in a Fitzpatrick mill at high speed (4000 RPM), hammers forward with a 000-band screen. The drug was passed through the filter once and collected in a plastic bag.
Two batches of milled Form I (−)-cis-FTC were prepared: one by hand trituration in a mortar and pestle for 5 minutes, another by milling in a Fitzpatrick mill.

[6] = below 130° C.

## Nc1nc(=O)n([C@@H]2CS[C@H](CO)O2)cc1F [(−)-(cis)-FTC, 4-amino-5-fluoro-1-(2-(hydroxymethyl)-1,3-oxathiolan-5-yl)-2(1H)-pyrimidinone (2R-cis)]
[1]
  HIV activity: potent

## Nc1ccn(C2CSC(CO)O2)c(=O)n1 (racemic) [BCH-189, 2-hydroxymethyl-5-(cytosin-1-yl)-1,3-oxathiolane]
[2]
  activity against HIV relative to AZT: approximately the same activity against HIV as AZT

## Nc1nc(=O)n([C@@H]2CS[C@H](CO)O2)cc1F [Form I, β-L-2-hydroxymethyl-5-(5-fluorocytosin-1-yl)-1,3-oxathiolane]
[3]
  solubility category: highly soluble
[4]
  change in potency by HPLC: no change in potency
[5]
  effect of milling on crystal form: does not affect the crystal form
[6]
  thermodynamic stability among phases: most stable phase
